Experimental findings from patent US20230233545A1, “TREATMENT OF ATRIAL DYSFUNCTION” (MyoKardia, Inc., priority 2020, published 2023) are described below.

The test system of test [1] is beagle dogs (without left ventricular dysfunction). As to the kind of experiment: AF inducibility and LA size/function with phenylephrine on board, dobutamine (Example 4). The format is in vivo. To be noted: FIG. 6. On the procedure:
Once sinus rhythm was re-established (cardioversion was used if AF persisted for more than 30 minutes), a third anesthetized ECHO was performed.
The effects of dobutamine on AF inducibility and LA size and function were examined by echocardiography (ECHO) and electrocardiogram (ECG) in beagle dogs with phenylephrine (PE) on board, and compared to the effects of PE alone. The beagle dogs (without left ventricular dysfunction) were assessed for left atrial function and size and for atrial fibrillation inducibility according to the protocols described in Example 3 (experimental design shown in FIG. 5), allowing for the effects of dobutamine to be compared to those of Compound I as shown in Example 3.

Test [2] deals with beagle dogs under isoflurane anesthesia, right-atrial burst pacing. Briefly: AF inducibility and LA size/function with phenylephrine on board (Example 3). To be noted: P<0.05.

On to `CC(CCc1ccc(O)cc1)NCCc1ccc(O)c(O)c1` (stereo not drawn) [dobutamine], for which the AF duration result in test [1] (dobutamine 1-10 μg/kg/hr infusion with PE) was “did not reduce AF duration, and in fact increased it”. Moreover, the “LV contractility (ΔEF)” value in test [1] (dobutamine 1-10 μg/kg/hr infusion) is listed as “increase LV contractility”.
On to `CNC[C@H](O)c1cccc(O)c1` [phenylephrine, reference compound], for which the “SBP, change induced by phenylephrine” value in test [2] (PE 0.5-20 μg/kg/min fixed rate) was 38±7%. In test [2] (PE 0.5-20 μg/kg/min, from 22.9±2.0), this molecule showed an LAmin under phenylephrine of 29.3±2.5 mL/m^2. This molecule showed an SBP under phenylephrine in test [2] (PE 0.5-20 μg/kg/min, from 88.6±2.7) of 122.4±6.9 mmHg. Besides, the “LAmin, change induced by phenylephrine” value in test [2] (PE 0.5-20 μg/kg/min, increase) is 28±3%.
